ChEMBL document CHEMBL1201861, “Genomics of Drug Sensitity in Cancer screening data, Wellcome Trust Sanger Institute”

Tests used:
Experiment in all cases: cells
Conditions in all cases: Homo sapiens
NH-12 = format: functional, cell-based;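 further: growth inhibition of NH-12 cells, read out with a cell viability assay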
Description: SANGER: Inhibition of human NH-12 cell growth in a cell viability assay.

LAMA-84 = format: functional, cell-based;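 further: growth inhibition of LAMA-84 cells, read out with a cell viability assay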
Description: SANGER: Inhibition of human LAMA-84 cell growth in a cell viability assay.

JVM-3 = format: functional, cell-based;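 further: growth inhibition of human JVM-3 cells, read out with a cell viability assay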
Description: SANGER: Inhibition of human JVM-3 cell growth in a cell viability assay.

SK-MEL-1 = format: functional, cell-based;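 further: growth inhibition of human SK-MEL-1 cells, read out by a cell viability assay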
Description: SANGER: Inhibition of human SK-MEL-1 cell growth in a cell viability assay.

NB10 = format: functional, cell-based;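 further: growth inhibition of NB10 cells, read out by a cell viability assay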
Description: SANGER: Inhibition of human NB10 cell growth in a cell viability assay.

HDLM-2 = format: functional, cell-based;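 further: cell viability assay measuring suppression of HDLM-2 proliferation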
Description: SANGER: Inhibition of human HDLM-2 cell growth in a cell viability assay.

KP-N-YS = format: functional, cell-based;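 further: cell viability assay measuring inhibition of cell line growth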
Description: SANGER: Inhibition of human KP-N-YS cell growth in a cell viability assay.

TE-6 = format: functional, cell-based;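 further: growth inhibition of TE-6 cells, read out with a cell viability assay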
Description: SANGER: Inhibition of human TE-6 cell growth in a cell viability assay.

L-363 = format: functional, cell-based
Description: SANGER: Inhibition of human L-363 cell growth in a cell viability assay.

COLO-320-HSR = format: functional, cell-based;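 further: growth inhibition of COLO-320-HSR cells, determined with a cell viability assay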
Description: SANGER: Inhibition of human COLO-320-HSR cell growth in a cell viability assay.

RKO = format: functional, cell-based;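 further: growth inhibition of human RKO cells, read out with a cell viability assay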
Description: SANGER: Inhibition of human RKO cell growth in a cell viability assay.

DEL = format: functional, cell-based;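 further: growth inhibition of the human DEL cell line, read out with a cell viability assay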
Description: SANGER: Inhibition of human DEL cell growth in a cell viability assay.

MC116 = format: functional, cell-based;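 further: growth inhibition of MC116 cells, read out with a cell viability assay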
Description: SANGER: Inhibition of human MC116 cell growth in a cell viability assay.

KLE = format: functional, cell-based;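 further: growth inhibition of human KLE cells, read out with a cell viability assay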
Description: SANGER: Inhibition of human KLE cell growth in a cell viability assay.

KMOE-2 = format: functional, cell-based;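 further: growth inhibition of human KMOE-2 cells, read out with a cell viability assay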
Description: SANGER: Inhibition of human KMOE-2 cell growth in a cell viability assay.

Ramos-2G6-4C10 = format: functional, cell-based;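 further: growth inhibition of the cell line, measured by a cell viability read-out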
Description: SANGER: Inhibition of human Ramos-2G6-4C10 cell growth in a cell viability assay.

GI-1 = format: functional, cell-based;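 further: growth inhibition of human GI-1 cells, measured with a cell viability readout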
Description: SANGER: Inhibition of human GI-1 cell growth in a cell viability assay.

L-428 = format: functional, cell-based
Description: SANGER: Inhibition of human L-428 cell growth in a cell viability assay.

MMAC-SF = format: functional, cell-based;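 further: growth inhibition of human MMAC-SF cells, read out with a cell viability assay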
Description: SANGER: Inhibition of human MMAC-SF cell growth in a cell viability assay.

NCI-H1304 = format: functional, cell-based;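 further: growth inhibition of the cancer cell line, measured in a cell viability assay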
Description: SANGER: Inhibition of human NCI-H1304 cell growth in a cell viability assay.

NCI-H1395 = format: functional, cell-based;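 further: cell viability assay read-out quantifying reduced proliferation of human NCI-H1395 cells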
Description: SANGER: Inhibition of human NCI-H1395 cell growth in a cell viability assay.

HT-144 = format: functional, cell-based
Description: SANGER: Inhibition of human HT-144 cell growth in a cell viability assay.

KARPAS-45 = format: functional, cell-based;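 further: inhibition of cell line growth, read out through a viability assay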
Description: SANGER: Inhibition of human KARPAS-45 cell growth in a cell viability assay.

SNU-5 = format: functional, cell-based;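 further: cell viability readout used to measure growth inhibition in human NCI-SNU-5 cells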
Description: SANGER: Inhibition of human NCI-SNU-5 cell growth in a cell viability assay.

EW-13 = format: functional, cell-based;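 further: growth inhibition of EW-13 cells, read out with a cell viability assay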
Description: SANGER: Inhibition of human EW-13 cell growth in a cell viability assay.

NCI-H526 = format: functional, cell-based;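 further: growth inhibition of the human NCI-H526 cell line, measured by a cell viability assay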
Description: SANGER: Inhibition of human NCI-H526 cell growth in a cell viability assay.

EKVX = format: functional, cell-based;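 further: growth inhibition of human EKVX cells, read out with a cell viability assay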
Description: SANGER: Inhibition of human EKVX cell growth in a cell viability assay.

ES4 = format: functional, cell-based;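 further: growth inhibition of human ES4 cells, read out by a cell viability assay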
Description: SANGER: Inhibition of human ES4 cell growth in a cell viability assay.

SJSA-1 = format: functional, cell-based;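 further: growth inhibition of human SJSA-1 cells, read out through a cell viability measurement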
Description: SANGER: Inhibition of human SJSA-1 cell growth in a cell viability assay.

NCI-H747 = format: functional, cell-based;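 further: growth inhibition of human NCI-H747 cells, read out by a cell viability assay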
Description: SANGER: Inhibition of human NCI-H747 cell growth in a cell viability assay.

ONS-76 = format: functional, cell-based;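 further: growth inhibition of human ONS-76 cells, read out with a cell viability assay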
Description: SANGER: Inhibition of human ONS-76 cell growth in a cell viability assay.

MHH-NB-11 = format: functional, cell-based;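 further: growth inhibition of human MHH-NB-11 cells, read out by a cell viability assay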
Description: SANGER: Inhibition of human MHH-NB-11 cell growth in a cell viability assay.

U-87 MG = format: functional, cell-based, U-87MG ATCC;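 further: growth inhibition of the cells measured with a viability assay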
Description: SANGER: Inhibition of human U-87-MG cell growth in a cell viability assay.

NB69 = format: functional, cell-based;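 further: growth inhibition of NB69 cells, determined by a cell viability assay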
Description: SANGER: Inhibition of human NB69 cell growth in a cell viability assay.

MZ1-PC = format: functional, cell-based;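 further: cell viability assay measuring growth inhibition of human MZ1-PC cells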
Description: SANGER: Inhibition of human MZ1-PC cell growth in a cell viability assay.

TGBC24TKB = format: functional, cell-based;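 further: growth inhibition of human TGBC24TKB cells, read out with a cell viability assay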
Description: SANGER: Inhibition of human TGBC24TKB cell growth in a cell viability assay.

SF-539 = format: functional, cell-based;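 further: Read-out is a cell viability assay, with IC50 reflecting inhibition of cell growth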
Description: SANGER: Inhibition of human SF539 cell growth in a cell viability assay.

UACC-257 = format: functional, cell-based
Description: SANGER: Inhibition of human UACC-257 cell growth in a cell viability assay.

GI-ME-N = format: functional, cell-based;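 further: growth inhibition of human GI-ME-N cells, read out with a cell viability assay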
Description: SANGER: Inhibition of human GI-ME-N cell growth in a cell viability assay.

TE-10 = format: functional, cell-based;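 further: growth inhibition of TE-10 cells, measured by a cell viability assay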
Description: SANGER: Inhibition of human TE-10 cell growth in a cell viability assay.

BB30-HNC = format: functional, cell-based;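 further: growth inhibition of the cultured cell line, read out by a cell viability assay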
Description: SANGER: Inhibition of human BB30-HNC cell growth in a cell viability assay.

ATN-1 = format: functional, cell-based;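 further: growth inhibition of human ATN-1 cells, read out with a cell viability assay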
Description: SANGER: Inhibition of human ATN-1 cell growth in a cell viability assay.

IA-LM = format: functional, cell-based;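 further: cell viability assay measuring growth inhibition of human IA-LM cells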
Description: SANGER: Inhibition of human IA-LM cell growth in a cell viability assay.

MZ2-MEL = format: functional, cell-based;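 further: growth inhibition of MZ2-MEL cells read out with a cell viability assay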
Description: SANGER: Inhibition of human MZ2-MEL cell growth in a cell viability assay.

LU-134-A = format: functional, cell-based
Description: SANGER: Inhibition of human LU-134-A cell growth in a cell viability assay.

NCI-H1581 = format: functional, cell-based;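 further: cell growth inhibition read out by a viability assay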
Description: SANGER: Inhibition of human NCI-H1581 cell growth in a cell viability assay.

A101D = format: functional, cell-based;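 further: growth inhibition of the cell line, measured with a viability assay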
Description: SANGER: Inhibition of human A101D cell growth in a cell viability assay.

HCC1187 = format: functional, cell-based;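 further: growth inhibition of HCC1187 cells, read out with a cell viability assay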
Description: SANGER: Inhibition of human HCC1187 cell growth in a cell viability assay.

A388 = format: functional, cell-based;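 further: growth inhibition of human A388 cells, read out with a cell viability assay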
Description: SANGER: Inhibition of human A388 cell growth in a cell viability assay.

Mo = format: functional, cell-based
Description: SANGER: Inhibition of human Mo-T cell growth in a cell viability assay.

SK-PN-DW = format: functional, cell-based;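 further: growth inhibition measured with a viability assay on these cells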
Description: SANGER: Inhibition of human SK-PN-DW cell growth in a cell viability assay.

HL-60 = format: functional, cell-based;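 further: growth inhibition of human HL-60 cells, read out with a cell viability assay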
Description: SANGER: Inhibition of human HL-60 cell growth in a cell viability assay.

MZ7-mel = format: functional, cell-based;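 further: growth inhibition of human MZ7-mel cells, measured by a cell viability assay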
Description: SANGER: Inhibition of human MZ7-mel cell growth in a cell viability assay.

MOLT-16 = format: functional, cell-based;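 further: growth inhibition of human MOLT-16 cells, read out with a cell viability assay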
Description: SANGER: Inhibition of human MOLT-16 cell growth in a cell viability assay.

OVCAR-4 = format: functional, cell-based
Description: SANGER: Inhibition of human OVCAR-4 cell growth in a cell viability assay.

EW-18 = format: functional, cell-based
Description: SANGER: Inhibition of human EW-18 cell growth in a cell viability assay.

NCI-H209 = format: functional, cell-based
Description: SANGER: Inhibition of human NCI-H209 cell growth in a cell viability assay.

MEG-01 = format: functional, cell-based
Description: SANGER: Inhibition of human MEG-01 cell growth in a cell viability assay.

DOHH-2 = format: functional, cell-based
Description: SANGER: Inhibition of human DOHH-2 cell growth in a cell viability assay.

SK-N-FI = format: functional, cell-based
Description: SANGER: Inhibition of human SK-N-FI cell growth in a cell viability assay.

Becker = format: functional, cell-based
Description: SANGER: Inhibition of human Becker cell growth in a cell viability assay.

EW-16 = format: functional, cell-based
Description: SANGER: Inhibition of human EW-16 cell growth in a cell viability assay.

DMS-114 = format: functional, cell-based
SK-NEP-1 = format: functional, cell-based
Description: SANGER: Inhibition of human SK-NEP-1 cell growth in a cell viability assay.

CAS-1 = format: functional, cell-based
Description: SANGER: Inhibition of human CAS-1 cell growth in a cell viability assay.

EW-1 = format: functional, cell-based
Description: SANGER: Inhibition of human EW-1 cell growth in a cell viability assay.

Cc1[nH]c(/C=C2\C(=O)Nc3ccc(S(=O)(=O)Cc4c(Cl)cccc4Cl)cc32)c(C)c1C(=O)N1CCC[C@@H]1CN1CCCC1 [PHA-665752]
IC50 (NH-12): > 2000 nM | IC50 (LAMA-84): > 2000 nM | IC50 (JVM-3): > 2000 nM | IC50 (SK-MEL-1): > 2000 nM | IC50 (NB10): > 2000 nM | IC50 (HDLM-2): > 2000 nM | IC50 (KP-N-YS): > 2000 nM | IC50 (TE-6): > 2000 nM | IC50 (L-363): > 2000 nM | IC50 (COLO-320-HSR): > 2000 nM | IC50 (RKO): > 2000 nM | IC50 (DEL): > 2000 nM | IC50 (MC116): > 2000 nM | IC50 (KLE): > 2000 nM | IC50 (KMOE-2): > 2000 nM | IC50 (Ramos-2G6-4C10): > 2000 nM | IC50 (GI-1): > 2000 nM | IC50 (L-428): > 2000 nM | IC50 (MMAC-SF): > 2000 nM | IC50 (NCI-H1304): > 2000 nM | IC50 (NCI-H1395): > 2000 nM | IC50 (HT-144): > 2000 nM | IC50 (KARPAS-45): > 2000 nM | IC50 (SNU-5): 124 nM | IC50 (EW-13): > 2000 nM | IC50 (NCI-H526): > 2000 nM | IC50 (EKVX): > 2000 nM | IC50 (ES4): > 2000 nM | IC50 (SJSA-1): > 2000 nM | IC50 (NCI-H747): > 2000 nM | IC50 (ONS-76): > 2000 nM | IC50 (MHH-NB-11): > 2000 nM | IC50 (U-87 MG): > 2000 nM | IC50 (NB69): > 2000 nM | IC50 (MZ1-PC): > 2000 nM | IC50 (TGBC24TKB): > 2000 nM | IC50 (SF-539): > 2000 nM | IC50 (UACC-257): > 2000 nM | IC50 (GI-ME-N): > 2000 nM | IC50 (TE-10): > 2000 nM | IC50 (BB30-HNC): > 2000 nM | IC50 (ATN-1): > 2000 nM | IC50 (IA-LM): > 2000 nM | IC50 (MZ2-MEL): > 2000 nM | IC50 (LU-134-A): > 2000 nM | IC50 (NCI-H1581): > 2000 nM | IC50 (A101D): > 2000 nM | IC50 (HCC1187): > 2000 nM | IC50 (A388): > 2000 nM | IC50 (Mo): > 2000 nM | IC50 (SK-PN-DW): > 2000 nM | IC50 (HL-60): > 2000 nM | IC50 (MZ7-mel): > 2000 nM | IC50 (MOLT-16): > 2000 nM | IC50 (OVCAR-4): > 2000 nM | IC50 (EW-18): > 2000 nM | IC50 (NCI-H209): > 2000 nM | IC50 (MEG-01): > 2000 nM | IC50 (DOHH-2): > 2000 nM | IC50 (SK-N-FI): > 2000 nM | IC50 (Becker): > 2000 nM | IC50 (EW-16): > 2000 nM | IC50 (DMS-114): > 2000 nM | IC50 (SK-NEP-1): > 2000 nM | IC50 (CAS-1): > 2000 nM | IC50 (EW-1): > 2000 nM

Cc1n[nH]c2ccc(-c3cncc(OC[C@@H](N)Cc4c[nH]c5ccccc45)c3)cc12 [A-443654]
IC50 (NH-12): > 1020 nM | IC50 (LAMA-84): 610 nM | IC50 (JVM-3): > 1020 nM | IC50 (SK-MEL-1): > 1020 nM | IC50 (NB10): > 1020 nM | IC50 (HDLM-2): > 1020 nM | IC50 (KP-N-YS): > 1020 nM | IC50 (TE-6): 860 nM | IC50 (L-363): 153 nM | IC50 (COLO-320-HSR): 937 nM | IC50 (RKO): 136 nM | IC50 (DEL): 231 nM | IC50 (MC116): 137 nM | IC50 (KLE): 226 nM | IC50 (KMOE-2): > 1020 nM | IC50 (Ramos-2G6-4C10): 170 nM | IC50 (GI-1): 187 nM | IC50 (L-428): > 1020 nM | IC50 (MMAC-SF): > 1020 nM | IC50 (NCI-H1304): 163 nM | IC50 (NCI-H1395): > 1020 nM | IC50 (HT-144): 153 nM | IC50 (KARPAS-45): 296 nM | IC50 (SNU-5): > 1020 nM | IC50 (EW-13): > 1020 nM | IC50 (NCI-H526): > 1020 nM | IC50 (EKVX): > 1020 nM | IC50 (ES4): 37.7 nM | IC50 (SJSA-1): 376 nM | IC50 (NCI-H747): 82.5 nM | IC50 (ONS-76): 444 nM | IC50 (MHH-NB-11): > 1020 nM | IC50 (U-87 MG): > 1020 nM | IC50 (NB69): 227 nM | IC50 (MZ1-PC): 79.5 nM | IC50 (TGBC24TKB): 810 nM | IC50 (SF-539): > 1020 nM | IC50 (UACC-257): > 1020 nM | IC50 (GI-ME-N): 278 nM | IC50 (TE-10): 89.4 nM | IC50 (BB30-HNC): 220 nM | IC50 (ATN-1): > 1020 nM | IC50 (IA-LM): 200 nM | IC50 (MZ2-MEL): > 1020 nM | IC50 (LU-134-A): 363 nM | IC50 (NCI-H1581): 606 nM | IC50 (A101D): 133 nM | IC50 (HCC1187): > 1020 nM | IC50 (A388): 84.3 nM | IC50 (Mo): > 1020 nM | IC50 (SK-PN-DW): 222 nM | IC50 (HL-60): 500 nM | IC50 (MZ7-mel): 564 nM | IC50 (MOLT-16): 83.7 nM | IC50 (OVCAR-4): 243 nM | IC50 (EW-18): > 1020 nM | IC50 (NCI-H209): 246 nM | IC50 (MEG-01): 814 nM | IC50 (DOHH-2): 240 nM | IC50 (SK-N-FI): 845 nM | IC50 (Becker): 303 nM | IC50 (EW-16): 216 nM | IC50 (DMS-114): 983 nM | IC50 (SK-NEP-1): 519 nM | IC50 (CAS-1): > 1020 nM | IC50 (EW-1): 221 nM

CC[C@]1(O)C[C@@H]2CN(CCc3c([nH]c4ccccc34)[C@@](C(=O)OC)(c3cc4c(cc3OC)N(C)[C@H]3[C@@](O)(C(=O)OC)[C@H](OC(C)=O)[C@]5(CC)C=CCN6CC[C@]43[C@@H]65)C2)C1 [VINBLASTINE]
IC50 (NH-12): 26.3 nM | IC50 (LAMA-84): 7.01 nM | IC50 (JVM-3): 1.7 nM | IC50 (SK-MEL-1): 67.3 nM | IC50 (NB10): 7.32 nM | IC50 (HDLM-2): > 100 nM | IC50 (KP-N-YS): 22.9 nM | IC50 (TE-6): 56.5 nM | IC50 (L-363): 6 nM | IC50 (COLO-320-HSR): > 100 nM | IC50 (RKO): 8.24 nM | IC50 (DEL): 2.16 nM | IC50 (MC116): 7.95 nM | IC50 (KLE): > 100 nM | IC50 (KMOE-2): 20.8 nM | IC50 (Ramos-2G6-4C10): 1.55 nM | IC50 (GI-1): 4.36 nM | IC50 (L-428): > 100 nM | IC50 (MMAC-SF): 15.1 nM | IC50 (NCI-H1304): > 100 nM | IC50 (NCI-H1395): 4.28 nM | IC50 (HT-144): 3.32 nM | IC50 (KARPAS-45): 1.79 nM | IC50 (SNU-5): > 100 nM | IC50 (EW-13): 36.5 nM | IC50 (NCI-H526): 5.14 nM | IC50 (EKVX): > 100 nM | IC50 (ES4): 13.8 nM | IC50 (SJSA-1): 12.1 nM | IC50 (NCI-H747): 81.2 nM | IC50 (ONS-76): 3.74 nM | IC50 (MHH-NB-11): 38.9 nM | IC50 (U-87 MG): 30 nM | IC50 (NB69): 5.73 nM | IC50 (MZ1-PC): 24.2 nM | IC50 (TGBC24TKB): 32.5 nM | IC50 (SF-539): 1.21 nM | IC50 (UACC-257): 90.5 nM | IC50 (GI-ME-N): 6.08 nM | IC50 (TE-10): 21.5 nM | IC50 (BB30-HNC): 8.31 nM | IC50 (ATN-1): 1.03 nM | IC50 (IA-LM): 68.6 nM | IC50 (MZ2-MEL): 60.3 nM | IC50 (LU-134-A): 8.58 nM | IC50 (NCI-H1581): 4.24 nM | IC50 (A101D): 31.4 nM | IC50 (HCC1187): 2.75 nM | IC50 (A388): 6.91 nM | IC50 (Mo): > 100 nM | IC50 (SK-PN-DW): 6.14 nM | IC50 (HL-60): 4.37 nM | IC50 (MZ7-mel): 11.1 nM | IC50 (MOLT-16): 2.43 nM | IC50 (OVCAR-4): 27.9 nM | IC50 (EW-18): > 100 nM | IC50 (NCI-H209): 13.1 nM | IC50 (MEG-01): 14.7 nM | IC50 (DOHH-2): 1.81 nM | IC50 (SK-N-FI): > 100 nM | IC50 (Becker): 1.13 nM | IC50 (EW-16): 7.83 nM | IC50 (DMS-114): 20.9 nM | IC50 (SK-NEP-1): 1.5 nM | IC50 (CAS-1): 93.1 nM | IC50 (EW-1): 3.15 nM
